Test results published in ChEMBL document CHEMBL4152374, “A new phenolic series of indenopyridinone as topoisomerase inhibitors: Design, synthesis, and structure-activity relationships” (Bioorg Med Chem, 2018).
Counter-ions that a name gives are not always drawn.

How the values were obtained:
[1] = target: T1, DNA topoisomerase 1 (Homo sapiens) (UniProt P11387); experiment: Inhibition of human topoisomerase 1 using supercoiled pBR322 plasmid DNA as substrate at 100 uM after 30 mins by agarose gel electrophoresis method relative to control
T1 sequence (whole entry): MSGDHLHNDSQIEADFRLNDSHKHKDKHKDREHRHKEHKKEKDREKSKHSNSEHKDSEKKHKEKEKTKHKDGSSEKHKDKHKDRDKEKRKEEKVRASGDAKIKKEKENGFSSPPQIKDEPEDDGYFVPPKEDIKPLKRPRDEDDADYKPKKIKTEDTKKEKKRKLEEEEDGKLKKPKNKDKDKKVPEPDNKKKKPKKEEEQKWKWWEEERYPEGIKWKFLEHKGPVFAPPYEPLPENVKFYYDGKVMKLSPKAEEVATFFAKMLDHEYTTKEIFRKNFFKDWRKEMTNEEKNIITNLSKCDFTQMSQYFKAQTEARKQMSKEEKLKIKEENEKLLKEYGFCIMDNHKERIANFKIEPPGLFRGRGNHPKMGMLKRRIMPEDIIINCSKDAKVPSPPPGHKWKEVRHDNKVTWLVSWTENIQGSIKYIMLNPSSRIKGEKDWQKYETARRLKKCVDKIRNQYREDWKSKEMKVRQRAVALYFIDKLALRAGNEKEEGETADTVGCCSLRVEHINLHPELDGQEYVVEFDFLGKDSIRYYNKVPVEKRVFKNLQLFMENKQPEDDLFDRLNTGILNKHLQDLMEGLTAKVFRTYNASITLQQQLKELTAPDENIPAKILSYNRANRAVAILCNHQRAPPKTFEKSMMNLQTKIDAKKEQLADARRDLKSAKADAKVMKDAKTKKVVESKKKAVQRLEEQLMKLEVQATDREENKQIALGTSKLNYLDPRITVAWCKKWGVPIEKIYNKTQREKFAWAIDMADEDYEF

T47D = experiment: Antiproliferative activity against human T47D cells after 72 hrs by EZ-CYTOX reagent based assay; format: functional, cell-based
[2] = target: DNA topoisomerase 2-alpha (Homo sapiens) (UniProt P11388); experiment: Inhibition of human topoisomerase 2-alpha using supercoiled pBR322 plasmid DNA as substrate at 100 uM after 30 mins by agarose gel electrophoresis method relative to control
DNA topoisomerase 2-alpha (Homo sapiens), sequence (P11388 whole entry): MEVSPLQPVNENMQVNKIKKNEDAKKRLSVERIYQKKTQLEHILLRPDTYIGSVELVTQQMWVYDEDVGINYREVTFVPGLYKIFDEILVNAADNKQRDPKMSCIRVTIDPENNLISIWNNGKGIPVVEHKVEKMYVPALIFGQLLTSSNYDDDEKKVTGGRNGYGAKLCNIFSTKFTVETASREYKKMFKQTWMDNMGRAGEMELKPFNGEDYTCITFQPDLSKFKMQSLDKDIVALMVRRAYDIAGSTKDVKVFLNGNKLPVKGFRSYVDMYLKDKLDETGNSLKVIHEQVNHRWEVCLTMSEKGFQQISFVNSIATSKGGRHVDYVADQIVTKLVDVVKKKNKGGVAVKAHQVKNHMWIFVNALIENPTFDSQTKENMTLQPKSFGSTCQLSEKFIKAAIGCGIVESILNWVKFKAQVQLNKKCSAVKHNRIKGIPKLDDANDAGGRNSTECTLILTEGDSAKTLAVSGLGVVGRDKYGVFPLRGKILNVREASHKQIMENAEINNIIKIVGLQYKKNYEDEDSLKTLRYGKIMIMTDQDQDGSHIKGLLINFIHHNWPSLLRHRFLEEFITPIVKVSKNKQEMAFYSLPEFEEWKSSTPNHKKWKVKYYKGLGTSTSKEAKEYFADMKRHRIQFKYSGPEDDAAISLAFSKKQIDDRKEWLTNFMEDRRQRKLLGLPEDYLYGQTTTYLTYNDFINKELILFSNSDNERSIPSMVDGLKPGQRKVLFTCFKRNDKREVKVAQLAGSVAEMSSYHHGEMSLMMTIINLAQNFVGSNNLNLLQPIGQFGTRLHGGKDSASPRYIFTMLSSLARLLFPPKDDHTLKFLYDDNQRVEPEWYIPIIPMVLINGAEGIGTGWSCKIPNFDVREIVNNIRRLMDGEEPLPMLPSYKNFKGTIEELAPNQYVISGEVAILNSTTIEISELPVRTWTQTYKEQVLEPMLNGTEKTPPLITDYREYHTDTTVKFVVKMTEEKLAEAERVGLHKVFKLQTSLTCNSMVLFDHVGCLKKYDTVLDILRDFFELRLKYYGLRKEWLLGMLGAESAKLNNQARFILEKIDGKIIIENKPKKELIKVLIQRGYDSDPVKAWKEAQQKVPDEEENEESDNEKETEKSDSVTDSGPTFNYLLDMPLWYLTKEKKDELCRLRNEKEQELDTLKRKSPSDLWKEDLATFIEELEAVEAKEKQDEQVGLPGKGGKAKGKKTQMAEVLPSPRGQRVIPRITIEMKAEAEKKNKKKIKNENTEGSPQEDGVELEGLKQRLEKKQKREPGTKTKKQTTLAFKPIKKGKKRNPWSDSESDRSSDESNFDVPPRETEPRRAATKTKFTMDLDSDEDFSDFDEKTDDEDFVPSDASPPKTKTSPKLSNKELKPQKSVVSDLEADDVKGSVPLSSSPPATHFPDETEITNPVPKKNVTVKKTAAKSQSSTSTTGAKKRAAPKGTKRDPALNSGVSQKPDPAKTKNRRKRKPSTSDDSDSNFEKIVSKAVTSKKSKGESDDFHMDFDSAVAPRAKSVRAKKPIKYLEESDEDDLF

HeLa = experiment: Antiproliferative activity against human HeLa cells after 72 hrs by EZ-CYTOX reagent based assay; format: functional, cell-based
HCT-15 = experiment: Antiproliferative activity against human HCT15 cells after 72 hrs by EZ-CYTOX reagent based assay; format: functional, cell-based; conditions: HCT-15, 72 h
[3] = target: T1, DNA topoisomerase 1 (Homo sapiens); experiment: Inhibition of human topoisomerase 1 using supercoiled pBR322 plasmid DNA as substrate at 20 uM after 30 mins by agarose gel electrophoresis method relative to control
[4] = target: DNA topoisomerase 2-alpha (Homo sapiens) (UniProt P11388); experiment: Inhibition of human topoisomerase 2-alpha using supercoiled pBR322 plasmid DNA as substrate at 20 uM after 30 mins by agarose gel electrophoresis method relative to control
[5] = target: DNA topoisomerase 2-alpha (Homo sapiens) (UniProt P11388); experiment: Inhibition of human topoisomerase 2-alpha using supercoiled pBR322 plasmid DNA as substrate at 100 uM after 30 mins by agarose gel electrophoresis method relative to etoposide
[6] = target: DNA topoisomerase 2-alpha (Homo sapiens) (UniProt P11388); experiment: Inhibition of human topoisomerase 2-alpha using supercoiled pBR322 plasmid DNA as substrate at 20 uM after 30 mins by agarose gel electrophoresis method relative to etoposide
Calf thymus DNA = experiment: Inhibition of EtBr binding to calf thymus DNA up to 40 uM by fluorescence spectroscopy; format: nucleic-acid assay; conditions: Bos taurus

inhibition [1] [%]	inhibition [2] [%]	inhibition [3] [%]	inhibition [4] [%]	fold change (FC) [5]	fold change (FC) [6]	inhibition (Calf thymus DNA)	Structure (SMILES)	IC50 (T47D) [µM]	IC50 (HeLa) [µM]	IC50 (HCT-15) [µM]
63.9	53.6	0	22.6				Oc1ccc(-c2cc(-c3ccccc3)nc3c2C(O)c2ccccc2-3)cc1 (configuration not stated)	3.25	> 50	> 50
0	5.2			0.07			O=C1c2ccccc2-c2nc(-c3ccccc3O)cc(-c3ccc(O)cc3)c21	> 50	> 50	> 50
0	40.7		0.3				Oc1cccc(-c2cc(-c3ccccc3)c3c(n2)-c2ccccc2C3O)c1 (configuration not stated)	> 50	> 50	> 50
50	63.3	0	15.2	0.9	0.35		O=C1c2ccccc2-c2nc(-c3ccccc3)cc(-c3ccc(O)cc3)c21	> 50	> 50	> 50
20.1	55.1		17.8				Oc1cccc(-c2cc(-c3cccc(O)c3)c3c(n2)-c2ccccc2C3O)c1 (configuration not stated)	1.61	6.91	6.2
0	4.9			0.06			O=C1c2ccccc2-c2nc(-c3ccccc3O)cc(-c3ccccc3)c21	10.5	31.7	> 50
42.6	100	35.4	93.7	1.33 to 1.42	1.88 to 1.89	Dose-dependent effect	O=C1c2ccccc2-c2nc(-c3cccc(O)c3)cc(-c3ccc(O)cc3)c21	1.54	> 50	9.51
25.7	68.9		20.8	0.98	0.47		O=C1c2ccccc2-c2nc(-c3cccc(O)c3)cc(-c3cccc(O)c3)c21	1.24	> 50	> 50
11.5	57.7		12.1				Oc1ccc(-c2cc(-c3ccccc3O)c3c(n2)-c2ccccc2C3O)cc1 (configuration not stated)	4.28	10.8	13
60	72.8	0	12	1.04	0.27		O=C1c2ccccc2-c2nc(-c3ccc(O)cc3)cc(-c3ccccc3O)c21	0.42	2.3	2.82
81	21.5	0					OC1c2ccccc2-c2nc(-c3ccccc3)cc(-c3ccccc3)c21 (configuration not stated)	> 50	> 50	> 50
0	32.8		9.9	0.44	0.2		O=C1c2ccccc2-c2nc(-c3ccccc3O)cc(-c3ccccc3O)c21	> 50	> 50	> 50
5.8	25						O=C1c2ccccc2-c2nc(-c3ccccc3)cc(-c3ccccc3)c21	6.5	> 50	> 50
							CC[C@@]1(O)C(=O)OCc2c1cc1n(c2=O)Cc2cc3ccccc3nc2-1 [CAMPTOTHECIN]		1.37	0.05
71.9	60.9	61.7	26.7				Oc1ccc(-c2cc(-c3cccc(O)c3)c3c(n2)-c2ccccc2C3O)cc1 (configuration not stated)	1.7	7.08	9.76
0	2.6			0.03			O=C1c2ccccc2-c2nc(-c3cccc(O)c3)cc(-c3ccccc3O)c21	0.11	1.52	1.36
0	23.8			0.32			O=C1c2ccccc2-c2nc(-c3ccccc3)cc(-c3ccccc3O)c21	1.33	2.58	2.32
0	86.5		12.8	1.15 to 1.23	0.26		O=C1c2ccccc2-c2nc(-c3ccccc3O)cc(-c3cccc(O)c3)c21	> 50	4.84	6.09
7.4	9.3			0.12			O=C1c2ccccc2-c2nc(-c3ccccc3)cc(-c3cccc(O)c3)c21	1.18	2.24	2.48
							COc1cc([C@@H]2c3cc4c(cc3[C@@H](O[C@@H]3O[C@@H]5CO[C@@H](C)O[C@H]5[C@H](O)[C@H]3O)[C@H]3COC(=O)[C@H]23)OCO4)cc(OC)c1O [ETOPOSIDE]	0.4	9.21	2.94
							COc1cccc2c1C(=O)c1c(O)c3c(c(O)c1C2=O)C[C@@](O)(C(=O)CO)C[C@@H]3O[C@H]1C[C@H](N)[C@H](O)[C@H](C)O1 [DOXORUBICIN HYDROCHLORIDE]	0.31	1.5	
0.5	22.5			0.32			O=C1c2ccccc2-c2nc(-c3cccc(O)c3)cc(-c3ccccc3)c21	> 50	> 50	> 50
75.5	71.9	7.5	60.5	1.02	1.38		O=C1c2ccccc2-c2nc(-c3ccc(O)cc3)cc(-c3cccc(O)c3)c21	1.49	4.32	1.96
0	23.3			0.31			O=C1c2ccccc2-c2nc(-c3ccc(O)cc3)cc(-c3ccccc3)c21	1.4	2.25	2.18
0	100		30.5	1.33 to 1.42	0.61		O=C1c2ccccc2-c2nc(-c3ccc(O)cc3)cc(-c3ccc(O)cc3)c21	0.37	4.72	1.87
						Dose-dependent effect	COc1cc(NS(C)(=O)=O)ccc1Nc1c2ccccc2nc2ccccc12			
